pIC50: −log10 of the molar value.
system: not listed separately; assay: Inhibition of L-type calcium channel expressed in HEK293 cells; assay type: cell-based; conditions: not given

SMILES	pIC50
COC(=O)C1=C(C)NC(C)=C(C(=O)OC)C1c1ccccc1[N+](=O)[O-] [NIFEDIPINE]	7.22
CCOC(=O)C1=C(C)Nc2ccnn2C1c1cccc(Cl)c1Cl (configuration not stated)	5.03

biological target: T1, Potassium voltage-gated channel subfamily A member 5 (Homo sapiens, UniProt P22460); assay: Inhibition of human Kv1.5 channel expressed in mouse L929 cells by EP voltage clamp technique; assay type: cell-based; conditions: not given
T1 sequence (P22460 whole entry): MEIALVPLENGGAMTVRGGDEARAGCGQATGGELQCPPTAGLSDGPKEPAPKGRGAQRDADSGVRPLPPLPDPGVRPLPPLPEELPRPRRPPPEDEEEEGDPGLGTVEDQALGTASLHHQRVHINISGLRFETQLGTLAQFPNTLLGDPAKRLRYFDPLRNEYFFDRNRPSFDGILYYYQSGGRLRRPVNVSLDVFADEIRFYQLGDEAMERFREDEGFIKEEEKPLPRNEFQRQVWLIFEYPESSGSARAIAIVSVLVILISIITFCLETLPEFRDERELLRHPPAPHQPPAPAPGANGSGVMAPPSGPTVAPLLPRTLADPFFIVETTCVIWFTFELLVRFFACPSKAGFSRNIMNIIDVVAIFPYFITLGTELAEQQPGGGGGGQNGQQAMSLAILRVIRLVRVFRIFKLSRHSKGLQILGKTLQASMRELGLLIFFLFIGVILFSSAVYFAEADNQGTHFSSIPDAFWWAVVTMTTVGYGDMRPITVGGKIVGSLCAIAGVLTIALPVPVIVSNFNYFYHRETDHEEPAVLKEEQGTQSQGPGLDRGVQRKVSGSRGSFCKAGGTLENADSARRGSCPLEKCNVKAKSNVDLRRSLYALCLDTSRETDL

pIC50	SMILES
7.07	CC1=C(C(=O)N2CCN(c3ccccc3)CC2)C(c2ccc(Cl)c(Cl)c2)n2nccc2N1 (configuration not stated)
6.36	CCCCNC(=O)C1=C(C)Nc2ccnn2C1c1ccc(Cl)c(Cl)c1 (configuration not stated)
7.05	CC1=C(C(=O)N2CCCCC2)C(c2ccc(Cl)c(Cl)c2)n2nccc2N1 (configuration not stated)
6.80	CC1=C(C(=O)N2CCC(c3ccccc3)CC2)C(c2ccc(Cl)c(Cl)c2)n2nccc2N1 (configuration not stated)
6.80	CC1=C(C(=O)NCc2ccccc2)C(c2ccc(Cl)c(Cl)c2)n2nccc2N1 (configuration not stated)
6.72	CC1=C(C(=O)N2CCCCCC2)C(c2ccc(Cl)c(Cl)c2)n2nccc2N1 (configuration not stated)
7.15	CCCN(CCC)C(=O)C1=C(C)Nc2ccnn2C1c1ccc(Cl)c(Cl)c1 (configuration not stated)
6.27	CC1=C(C(=O)N2CCN(c3ccc(F)cc3)CC2)C(c2cccc(C)c2)n2nccc2N1 (configuration not stated)
6.31	CCCNC(=O)C1=C(C)Nc2ccnn2C1c1ccc(Cl)c(Cl)c1 (configuration not stated)
7.15	CC1=C(C(=O)N2CCN(c3ccc(F)cc3)CC2)[C@@H](c2ccc(Cl)c(Cl)c2)n2nccc2N1
6.85	CC1=C(C(=O)N2CCN(c3ccc(F)cc3)CC2)C(c2cc(Cl)cc(Cl)c2)n2nccc2N1 (configuration not stated)
6.36	CCN(CC)C(=O)C1=C(C)Nc2ccnn2C1c1ccc(Cl)c(Cl)c1 (configuration not stated)
6.18	CC1=C(C(=O)N2CCCC2)C(c2ccc(Cl)c(Cl)c2)n2nccc2N1 (configuration not stated)
6.80	CC1=C(C(=O)N2CCN(c3ccc(F)cc3)CC2)C(c2cc3ccccc3o2)n2nccc2N1 (configuration not stated)
6.23	CCCCCNC(=O)C1=C(C)Nc2ccnn2C1c1ccc(Cl)c(Cl)c1 (configuration not stated)
6.12	CC1=C(C(=O)N2CCN(c3ccc(F)cc3)CC2)C(c2ccc(C)c(C)c2)n2nccc2N1 (configuration not stated)
6.38	CC1=C(C(=O)N2CCN(c3ccc(F)cc3)CC2)C(c2cc(C)cc(C)c2)n2nccc2N1 (configuration not stated)

pIC50	SMILES
7.00	CC1=C(C(=O)NCCc2ccccc2)C(c2ccc(Cl)c(Cl)c2)n2nccc2N1 (configuration not stated)
6.19	CC1=C(C(=O)N2CCN(c3ccc(F)cc3)CC2)C(c2ccc3ccccc3c2)n2nccc2N1 (configuration not stated)
6.70	CC1=C(C(=O)N2CCN(c3ccc(F)cc3)CC2)C(c2sc3ccccc3c2C)n2nccc2N1 (configuration not stated)
6.51	CCCCN(CCCC)C(=O)C1=C(C)Nc2ccnn2C1c1ccc(Cl)c(Cl)c1 (configuration not stated)
6.36	CC1=C(C(=O)N2CCN(c3ccc(F)cc3)CC2)C(c2ccc(Cl)cc2)n2nccc2N1 (configuration not stated)
6.24	CCCCCN(CCCCC)C(=O)C1=C(C)Nc2ccnn2C1c1ccc(Cl)c(Cl)c1 (configuration not stated)
6.64	CC1=C(C(=O)N2CCN(c3ccc(F)cc3)CC2)C(c2ccc(Cl)s2)n2nccc2N1 (configuration not stated)
6.55	CC1=C(C(=O)N2CCN(c3ccc(F)cc3)CC2)C(c2ccc(Cl)cc2Cl)n2nccc2N1 (configuration not stated)
6.72	CC1=C(C(=O)N2CCN(c3ccc(F)cc3)CC2)C(c2cccc(Cl)c2)n2nccc2N1 (configuration not stated)
6.01	CC1=C(C(=O)N2CCC2)C(c2ccc(Cl)c(Cl)c2)n2nccc2N1 (configuration not stated)
6.92	CC1=C(C(=O)N2CCN(c3ccc(F)cc3)CC2)C(c2ccc(Cl)c(Cl)c2)n2nccc2N1 (configuration not stated)
6.80	CC1=C(C(=O)N2CCN(c3ccc(F)cc3)CC2)C(c2cccc(Cl)c2Cl)n2nccc2N1 (configuration not stated)
5.96	CCOC(=O)C1=C(C)Nc2ccnn2C1c1cccc(Cl)c1Cl (configuration not stated)
6.70	COC[C@@H]1CCCN1C(=O)C1=C(C)Nc2ccnn2C1c1ccc(Cl)c(Cl)c1 (some centres not stated)
6.09	CC1=C(C(=O)N2CCN(c3ccc(F)cc3)CC2)C(c2cc(Cl)ccc2Cl)n2nccc2N1 (configuration not stated)
6.80	CC1=C(C(=O)N2CCN(c3ccc(F)cc3)CC2)[C@@H](c2cccc(Cl)c2Cl)n2nccc2N1

SMILES	pIC50
COC(=O)C1=C(C)NC(C)=C(C(=O)OC)C1c1ccccc1[N+](=O)[O-] [NIFEDIPINE]	5.21

biological target: T1, Potassium voltage-gated channel subfamily A member 5; assay: Inhibition of human Kv1.5 channel expressed in Xenopus oocytes at 3 uM by EP voltage clamp technique; assay type: cell-based; conditions: Oocyte

inhibition [%]	SMILES
56	CCCCNC(=O)C1=C(C)Nc2ccnn2C1c1ccc(Cl)c(Cl)c1 (configuration not stated)
77	CC1=C(C(=O)N2CCCCC2)C(c2ccc(Cl)c(Cl)c2)n2nccc2N1 (configuration not stated)
59	CC1=C(C(=O)N2CCC(c3ccccc3)CC2)C(c2ccc(Cl)c(Cl)c2)n2nccc2N1 (configuration not stated)
62	CC1=C(C(=O)NCc2ccccc2)C(c2ccc(Cl)c(Cl)c2)n2nccc2N1 (configuration not stated)
90	CC1=C(C(=O)N2CCCCCC2)C(c2ccc(Cl)c(Cl)c2)n2nccc2N1 (configuration not stated)
72	CCCN(CCC)C(=O)C1=C(C)Nc2ccnn2C1c1ccc(Cl)c(Cl)c1 (configuration not stated)
57	CC1=C(C(=O)N2CCN(c3ccc(F)cc3)CC2)C(c2cccc(C)c2)n2nccc2N1 (configuration not stated)
72	CC1=C(C(=O)N2CCN(c3ccc(F)cc3)CC2)[C@@H](c2ccc(Cl)c(Cl)c2)n2nccc2N1
62	CC1=C(C(=O)N2CCN(c3ccc(F)cc3)CC2)C(c2cc(Cl)cc(Cl)c2)n2nccc2N1 (configuration not stated)
61	CCN(CC)C(=O)C1=C(C)Nc2ccnn2C1c1ccc(Cl)c(Cl)c1 (configuration not stated)
67	CC1=C(C(=O)N2CCCC2)C(c2ccc(Cl)c(Cl)c2)n2nccc2N1 (configuration not stated)
33	CC1=C(C(=O)N2CCN(c3ccc(F)cc3)CC2)C(c2cc3ccccc3o2)n2nccc2N1 (configuration not stated)
48	CCCCCNC(=O)C1=C(C)Nc2ccnn2C1c1ccc(Cl)c(Cl)c1 (configuration not stated)
34	CC1=C(C(=O)N2CCN(c3ccc(F)cc3)CC2)C(c2ccc(C)c(C)c2)n2nccc2N1 (configuration not stated)
58	CC1=C(C(=O)N2CCN(c3ccc(F)cc3)CC2)C(c2cc(C)cc(C)c2)n2nccc2N1 (configuration not stated)
39	CC1=C(C(=O)N2CCN(c3ccc(F)cc3)CC2)C(c2ccc3ccccc3c2)n2nccc2N1 (configuration not stated)
56	CC1=C(C(=O)N2CCN(c3ccc(F)cc3)CC2)C(c2sc3ccccc3c2C)n2nccc2N1 (configuration not stated)
45	CCCCN(CCCC)C(=O)C1=C(C)Nc2ccnn2C1c1ccc(Cl)c(Cl)c1 (configuration not stated)
42	CC1=C(C(=O)N2CCN(c3ccc(F)cc3)CC2)C(c2ccc(Cl)cc2)n2nccc2N1 (configuration not stated)
69	CCCCCN(CCCCC)C(=O)C1=C(C)Nc2ccnn2C1c1ccc(Cl)c(Cl)c1 (configuration not stated)
51	CC1=C(C(=O)N2CCN(c3ccc(F)cc3)CC2)C(c2ccc(Cl)s2)n2nccc2N1 (configuration not stated)
50	CC1=C(C(=O)N2CCN(c3ccc(F)cc3)CC2)C(c2ccc(Cl)cc2Cl)n2nccc2N1 (configuration not stated)
68	CC1=C(C(=O)N2CCN(c3ccc(F)cc3)CC2)C(c2cccc(Cl)c2)n2nccc2N1 (configuration not stated)
52	CC1=C(C(=O)N2CCC2)C(c2ccc(Cl)c(Cl)c2)n2nccc2N1 (configuration not stated)
65	CC1=C(C(=O)N2CCN(c3ccc(F)cc3)CC2)C(c2ccc(Cl)c(Cl)c2)n2nccc2N1 (configuration not stated)
72	CC1=C(C(=O)N2CCN(c3ccc(F)cc3)CC2)C(c2cccc(Cl)c2Cl)n2nccc2N1 (configuration not stated)
88	COC[C@@H]1CCCN1C(=O)C1=C(C)Nc2ccnn2C1c1ccc(Cl)c(Cl)c1 (some centres not stated)
41	CC1=C(C(=O)N2CCN(c3ccc(F)cc3)CC2)C(c2cc(Cl)ccc2Cl)n2nccc2N1 (configuration not stated)
67	CC1=C(C(=O)N2CCN(c3ccc(F)cc3)CC2)[C@@H](c2cccc(Cl)c2Cl)n2nccc2N1

biological target: T1, Potassium voltage-gated channel subfamily A member 5; assay: Inhibition of human Kv1.5 channel expressed in Xenopus oocytes at 10 uM by EP voltage clamp technique; assay type: cell-based; conditions: Oocyte

inhibition [%]	SMILES
82	CC1=C(C(=O)N2CCN(c3ccccc3)CC2)C(c2ccc(Cl)c(Cl)c2)n2nccc2N1 (configuration not stated)
84	CC1=C(C(=O)NCCc2ccccc2)C(c2ccc(Cl)c(Cl)c2)n2nccc2N1 (configuration not stated)

biological target: hERG (KCNH2) (Homo sapiens, UniProt Q12809); assay: Inhibition of human ERG at 10 uM; conditions: not given
Sequence (Q12809 whole entry): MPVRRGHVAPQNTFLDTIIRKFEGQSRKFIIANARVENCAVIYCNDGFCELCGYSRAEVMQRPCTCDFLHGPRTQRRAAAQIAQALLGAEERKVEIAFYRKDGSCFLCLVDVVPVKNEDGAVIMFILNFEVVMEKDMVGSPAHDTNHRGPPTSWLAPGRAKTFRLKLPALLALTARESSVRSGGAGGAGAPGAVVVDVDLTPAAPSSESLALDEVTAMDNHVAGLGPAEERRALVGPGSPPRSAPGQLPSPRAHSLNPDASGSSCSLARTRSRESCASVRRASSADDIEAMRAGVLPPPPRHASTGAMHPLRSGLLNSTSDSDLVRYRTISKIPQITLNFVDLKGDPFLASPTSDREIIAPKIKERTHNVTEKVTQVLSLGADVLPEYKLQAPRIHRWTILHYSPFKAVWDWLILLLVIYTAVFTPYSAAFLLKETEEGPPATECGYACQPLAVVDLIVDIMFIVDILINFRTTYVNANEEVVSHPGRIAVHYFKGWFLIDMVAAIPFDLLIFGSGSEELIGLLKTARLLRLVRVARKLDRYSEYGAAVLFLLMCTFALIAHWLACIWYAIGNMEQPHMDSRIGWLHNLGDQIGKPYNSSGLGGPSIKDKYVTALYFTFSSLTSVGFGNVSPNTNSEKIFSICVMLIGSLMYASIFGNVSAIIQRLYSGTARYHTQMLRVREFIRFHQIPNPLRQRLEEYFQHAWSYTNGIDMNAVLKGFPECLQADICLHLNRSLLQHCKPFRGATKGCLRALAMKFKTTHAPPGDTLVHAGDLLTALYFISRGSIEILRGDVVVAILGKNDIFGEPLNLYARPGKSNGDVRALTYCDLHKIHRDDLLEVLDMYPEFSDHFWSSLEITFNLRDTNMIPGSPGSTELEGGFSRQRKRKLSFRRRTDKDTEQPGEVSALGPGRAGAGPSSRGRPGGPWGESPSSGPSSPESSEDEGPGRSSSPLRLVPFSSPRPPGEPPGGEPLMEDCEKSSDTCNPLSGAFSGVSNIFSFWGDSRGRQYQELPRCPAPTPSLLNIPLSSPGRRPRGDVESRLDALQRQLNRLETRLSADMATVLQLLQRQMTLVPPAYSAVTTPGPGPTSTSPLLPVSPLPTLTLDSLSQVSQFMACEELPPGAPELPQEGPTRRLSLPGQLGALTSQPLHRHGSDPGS

SMILES	inhibition at 10 µM [%]
CC1=C(C(=O)N2CCN(c3ccc(F)cc3)CC2)[C@@H](c2ccc(Cl)c(Cl)c2)n2nccc2N1	69
CC1=C(C(=O)N2CCN(c3ccc(F)cc3)CC2)[C@@H](c2cccc(Cl)c2Cl)n2nccc2N1	41

system: not listed separately; assay: Inhibition of sodium channel INa at 10 uM by patch clamp technique; conditions: not given

inhibition [%]	SMILES
42	CC1=C(C(=O)N2CCN(c3ccc(F)cc3)CC2)[C@@H](c2ccc(Cl)c(Cl)c2)n2nccc2N1
14	CC1=C(C(=O)N2CCN(c3ccc(F)cc3)CC2)[C@@H](c2cccc(Cl)c2Cl)n2nccc2N1

system: not listed separately; assay: Inhibition of L-type calcium channel ICa at 10 uM; conditions: not given

inhibition [%]	SMILES
59	CC1=C(C(=O)N2CCN(c3ccc(F)cc3)CC2)[C@@H](c2ccc(Cl)c(Cl)c2)n2nccc2N1
55	CC1=C(C(=O)N2CCN(c3ccc(F)cc3)CC2)[C@@H](c2cccc(Cl)c2Cl)n2nccc2N1

system: not listed separately; assay: Inhibition of potassium channel IKs at 10 uM; conditions: not given

inhibition [%]	SMILES
21	CC1=C(C(=O)N2CCN(c3ccc(F)cc3)CC2)[C@@H](c2ccc(Cl)c(Cl)c2)n2nccc2N1
7	CC1=C(C(=O)N2CCN(c3ccc(F)cc3)CC2)[C@@H](c2cccc(Cl)c2Cl)n2nccc2N1

system: not listed separately; assay: Inhibition of potassium channel IK1 at 10 uM; conditions: not given

inhibition [%]	SMILES
3	CC1=C(C(=O)N2CCN(c3ccc(F)cc3)CC2)[C@@H](c2ccc(Cl)c(Cl)c2)n2nccc2N1
1	CC1=C(C(=O)N2CCN(c3ccc(F)cc3)CC2)[C@@H](c2cccc(Cl)c2Cl)n2nccc2N1

species: Homo sapiens; assay: Selectivity of human Kv1.5 channel over human ERG; conditions: not given

fold change (FC)	SMILES
> 50	CC1=C(C(=O)N2CCN(c3ccc(F)cc3)CC2)[C@@H](c2ccc(Cl)c(Cl)c2)n2nccc2N1
> 50	CC1=C(C(=O)N2CCN(c3ccc(F)cc3)CC2)[C@@H](c2cccc(Cl)c2Cl)n2nccc2N1

system: not listed separately; assay: Selectivity of human Kv1.5 channel over sodium channel INa; conditions: not given

fold change (FC)	SMILES
> 50	CC1=C(C(=O)N2CCN(c3ccc(F)cc3)CC2)[C@@H](c2ccc(Cl)c(Cl)c2)n2nccc2N1
> 50	CC1=C(C(=O)N2CCN(c3ccc(F)cc3)CC2)[C@@H](c2cccc(Cl)c2Cl)n2nccc2N1

system: not listed separately; assay: Selectivity of human Kv1.5 channel over L-type calcium channel ICa; conditions: not given

fold change (FC)	SMILES
> 50	CC1=C(C(=O)N2CCN(c3ccc(F)cc3)CC2)[C@@H](c2ccc(Cl)c(Cl)c2)n2nccc2N1
> 50	CC1=C(C(=O)N2CCN(c3ccc(F)cc3)CC2)[C@@H](c2cccc(Cl)c2Cl)n2nccc2N1

system: not listed separately; assay: Selectivity of human Kv1.5 channel over potassium channel IKs; conditions: not given

fold change (FC)	SMILES
> 50	CC1=C(C(=O)N2CCN(c3ccc(F)cc3)CC2)[C@@H](c2ccc(Cl)c(Cl)c2)n2nccc2N1
> 50	CC1=C(C(=O)N2CCN(c3ccc(F)cc3)CC2)[C@@H](c2cccc(Cl)c2Cl)n2nccc2N1

system: not listed separately; assay: Selectivity of human Kv1.5 channel over potassium channel IK1; conditions: not given

fold change (FC)	SMILES
> 50	CC1=C(C(=O)N2CCN(c3ccc(F)cc3)CC2)[C@@H](c2ccc(Cl)c(Cl)c2)n2nccc2N1
> 50	CC1=C(C(=O)N2CCN(c3ccc(F)cc3)CC2)[C@@H](c2cccc(Cl)c2Cl)n2nccc2N1
